# In patent US20240009150A1, “CAPSAICYNS IN THE TREATMENT OF LEAKY GUT” (AXICHEM AB [SE]/[SE], priority 2020, published 2024):
# “Also recorded” adds a separate entry of the source. Read-outs that look alike come from different tables or passages of the source. Marks after values point to notes of the source that are not given here.
# Assays:
# Escherichia coli O157:H7 = test: Inhibition of biofilm formation, crystal violet staining assay; format: cell-based; conditions: for Biofilm (OD 595 nm): 24 hr; for Biofilm (OD 595 nm) / biofilm formed (CVSA), in words: 30° C.
# Experimental: (§1) Biofilm formation was quantified with modifications using the method described by Stepanovic et al. (Journal of Microbiological Methods, 2000, 40(2), 175-19) with modifications. Using a 96-well microplate duplicate the test solutions were filled at the above selected doses. Cultures were grown for 18 hr in LB at 30° C. and adjusted to OD 0.1 at 600 nm. 20 μL of the culture were added into each well and the remainder of the volume to 200 μL per well was filled with LB. Unused external wells were filled with 200 μL of sterile water to prevent evaporation.
# (§2) After 24 hr of incubation, supernatants were discarded, and the wells were washed three times with 200 μL of sterile phosphate buffered saline (PBS). Bacteria adhered to the wells were fixed with 200 μL of methanol for 15 min, the methanol was discarded, and the plates dried at 25° C.
# (§3) Each well was stained with 200 μL of 0.3% (w/v) crystal violet solution for 5 min at 25° C. Crystal violet excess was pipetted out, and the wells were rinsed five times with sterile PBS. 200 μL of 33% (v/v) glacial acetic acid were added to the wells for 30 min to solubilise the dye adhered to the cell walls. Optical density (OD) was measured at 595 nm using a microplate spectrophotometer as a direct measure of biofilm formation. P. aeruginosa in 3% DMSO will be used as the negative control.
# (§4) A stock solution of 1000 μg of phenylcapsaicin and capsaicin was prepared by dissolving 1000 μg in 100 μL of ethanol and 900 μL of sterile water. The stock solutions were sequentially diluted with double and then quadruple volumes of solvent (10% aqueous ethanol solution) to yield 500/125/31.25 (32)/7.81 (8) μg/ml test solutions.
# (§5) E. coli O157:H7 was used to determine the biofilm inhibition activity. Inducer N-hexanoyl homoserine lactone (C6-HSL) was purchased from Sigma-Aldrich. E. coli O157:H7 was cultivated in Luria-Bertani (LB) medium (LB, 5 g yeast extract, 10 g tryptone, 5 g NaCl, 1 L water) at 37° C. overnight under aerobic conditions.
# Crystal violet staining assay was performed as in Experiment 3, using E. coli O157:H7 in 3% DMSO as the control.
# [1] = test system: Chromobacterium violaceum CV026; test: Quorum sensing inhibition, disc-diffusion assay with Chromobacterium violaceum CV026 (QS and antibacterial zones); format: cell-based; conditions: for QS (zone of quorum sensing inhibition): disc diffusion, zone past the disk; for zone of inhibition at 7.81 µg/mL / zone of inhibition at 15.63 µg/mL / zone of inhibition at 31.13 µg/mL / zone of inhibition at 62.5 µg/mL / zone of inhibition at 125 µg/mL / zone of inhibition at 250 µg/mL / zone of inhibition at 500 µg/mL: Chromobacterium violaceum
# Experimental: Chromobacterium violaceum CV026 is a violacein negative, double mini-Tn5 mutant from C. violaceum (ATCC 31532) that was used to identify quorum sensing inhibition.
# A stock solution of 1000 ug of compound V and capsaicin was prepared by dissolving 1000 μg in 100 μl of ethanol and 900 μl of sterile water. The stock solutions were sequentially diluted with double volumes of solvent (10% aqueous ethanol solution) to yield 500/250/125/62.5/31.25/15.625/7.81 μg/ml test solutions.
# Chromobacterium violaceum CV026 was used to determine the anti-quorum sensing activity. Inducer N-hexanoyl homoserine lactone (C6-HSL) was purchased from Sigma-Aldrich. CV026 was cultivated in Luria-Bertani (LB) medium (LB, 5 g yeast extract, 10 g tryptone, 5 g NaCl, 1 L water) at 30° C. overnight under aerobic conditions. A standard disc-diffusion assay was used to detect anti-quorum sensing activity of V and capsaicin by making use of double layer culture plates. 15 ml LB medium (2.5% agar) was overlaid with 15 ml LB (1.0% agar) containing 50 μl C. violaceum CV026 with 20 μg/ml-1 kanamycin and 50 ng/ml C6-AHL. Test concentrations of V and capsaicin were added onto sterile disks (8 mm diameter) and placed on the agar. The plates were then incubated overnight at 30° C. and quorum sensing inhibition was detected as a less colored/colourless zone around the disk, where viable cells, indicative of growth but quorum sensing inhibition, were present. Measurements were made from the outer edge of the discs to the edge of the zones of anti-quorum sensing inhibition. The formulation solvent (10% aqueous ethanol) was used as the negative control.
# The biosensor strain, C. violaceum CV026, is a mutant of the wild type strain and is unable to produce its own AHL signal. It only responds to exogenous active signal molecules and produces a purple color, violacein. Loss of this purple color around the disk when incubated with exogenous AHL is thus indicative of QS inhibition by the test compounds. More specifically, the zone (mm past the disk) of QS inhibition results in an opaque disc with no purple color but bacterial growth. […] The results are shown below in Table 1, wherein QS denotes quorum sensing.
# [2] = test system: P. aeruginosa (ATCC® 15442); test: Inhibition of biofilm formation, crystal violet staining assay; format: cell-based, Pseudomonas aeruginosa; conditions: for Biofilm (OD 595 nm): 24 hr; for Biofilm (OD 595 nm) / biofilm formed (CVSA), in words: 30° C.; for inhibition of biofilm formation, conclusion in words: any dose tested; for biofilm formed (CVSA), in words: concentrations less than 125 ug/ml
# Experimental: A stock solution of 1000 ug of V and capsaicin was prepared by dissolving 1000 μg in 100 μl of ethanol and 900 μl of sterile water. The stock solutions were sequentially diluted with […] of solvent (10% aqueous ethanol solution) to yield 500/125//31.25/7.81 μg/ml test solutions.
# as §5, with “P. aeruginosa (ATCC® 15442) was” for “E. coli O157:H7 was”, “Sigma-Aldrich. ATCC® 15442” for “Sigma-Aldrich. E. coli O157:H7”, “at 30°” for “at 37°”
# as §1, §2, §3
# [3] = test system: Salmonella enterica subsp. enterica serovar Paratyphi C (ATCC® BAA 1714™); test: Inhibition of biofilm formation, crystal violet staining assay (Example 5); format: cell-based; conditions: for Biofilm (OD 595 nm): 24 hr; for Biofilm (OD 595 nm) / biofilm formed (CVSA), in words: 30° C.; for biofilm formed (CVSA), in words: 32 and 8 μg/ml
# Experimental: as §1, §2, §3
# as §4, with “μl” for “μL”
# as §5, with “ATCC® BAA 1714™” for “E. coli O157:H7”
# Crystal violet staining assay was performed as in Experiment 3, using ATCC® BAA 1714™ in 3% DMSO as the control.
# [4] = CV026, read-out: Antibacterial (zone of growth inhibition)
# [5] = CV026, read-out: QS (zone of quorum sensing inhibition)
SMILES,Biofilm (OD 595 nm) (Escherichia coli O157:H7; 8 μg/mL),Biofilm (OD 595 nm) (Escherichia coli O157:H7; 32 μg/mL),QS (zone of quorum sensing inhibition) ([1]; 125 μg/mL),QS (zone of quorum sensing inhibition) ([1]; 250 μg/mL),QS (zone of quorum sensing inhibition) ([1]; 500 μg/mL),"zone of inhibition at 7.81 µg/mL [1, 4] [mm]","zone of inhibition at 15.63 µg/mL [1, 4] [mm]","zone of inhibition at 31.13 µg/mL [1, 4] [mm]","zone of inhibition at 62.5 µg/mL [1, 4] [mm]","zone of inhibition at 125 µg/mL [1, 4] [mm]","zone of inhibition at 250 µg/mL [1, 4] [mm]","zone of inhibition at 500 µg/mL [1, 4] [mm]","zone of inhibition at 7.81 µg/mL [1, 5] [mm]","zone of inhibition at 15.63 µg/mL [1, 5] [mm]","zone of inhibition at 31.13 µg/mL [1, 5] [mm]",Biofilm (OD 595 nm) ([2]; 7.81 μg/mL),Biofilm (OD 595 nm) ([2]; 31.125 μg/mL),Biofilm (OD 595 nm) ([2]; 125 μg/mL),"inhibition of biofilm formation, conclusion in words [2]","biofilm formed (CVSA), in words [2]",other results
"COc1cc(CNC(=O)CCCCC#Cc2ccccc2)ccc1O [Phenylcapsaicin, N-[(4-hydroxy-3-methoxyphenyl)methyl]-7-phenylhept-6-ynamide]",4.9^b OD 595 nm,2.4^b OD 595 nm,NO,NO,NO,0,0,0,3,5,9,10,3,9,11,1.7^b OD 595 nm,1.3^b OD 595 nm,1.9^b OD 595 nm,potent inhibitor of biofilm formation,significantly reduced,"biofilm formed (CVSA), in words (Escherichia coli O157:H7; 8 μg/ml lowest dose tested): no effect; biofilm formed (CVSA), in words (Escherichia coli O157:H7; 125 and 32 μg/ml): significantly reduced; also recorded: good inhibitor of biofilm formation; quorum sensing inhibiting activity (in words) ([1]; 61.5/31.25/15.625/7.81 μg/ml doses): strong to weak; zone of inhibition at 62.5 µg/mL [1, 5]: 7 mm; antibacterial activity (in words) ([1]; higher doses (500/250/125 μg/ml)): antibacterial activity; Biofilm (OD 595 nm) ([3]; 7.81 μg/mL): 2.9^b OD 595 nm; Biofilm (OD 595 nm) ([3]; 31.125 μg/mL): 3.2^b OD 595 nm; biofilm formed (CVSA), in words [3]: significantly reduced; also recorded: good inhibitor of biofilm formation"
"COc1cc(CNC(=O)CCCC/C=C/C(C)C)ccc1O [Capsaicin, (E)-N-(4-hydroxy-3-methoxybenzyl)-8-methylnon-6-enamide, reference compound]",5.9^a OD 595 nm,5.8^a OD 595 nm,NO,NO,NO,0,0,0,8,9,14,11,0,0,0,7.1^a OD 595 nm,7.0^a OD 595 nm,7.2^a OD 595 nm,did not exhibit any biofilm formation inhibition,did not show any reduction of biofilm formation,"Biofilm (OD 595 nm) (Escherichia coli O157:H7; 125 μg/mL): 5.1^a OD 595 nm; biofilm formation inhibition, in words (Escherichia coli O157:H7; 125, 32 and 8 μg/ml, any dose tested): did not show any reduction of biofilm formation; also recorded: did not exhibit any biofilm formation inhibition; QS (zone of quorum sensing inhibition) ([1]; 62.5 μg/mL): NO; quorum sensing inhibiting activity (in words) ([1]; non antibacterial doses (31.25/15.625/7.81 μg/ml)): did not exhibit quorum sensing inhibiting activity; Biofilm (OD 595 nm) ([3]; 7.81 μg/mL): 8.5^a OD 595 nm; Biofilm (OD 595 nm) ([3]; 31.125 μg/mL): 8.1^a OD 595 nm; biofilm formed (CVSA), in words [3]: did not show any reduction of biofilm formation; biofilm formation inhibition, conclusion in words ([3]; any dose tested): did not exhibit any biofilm formation inhibition"
